Marks after values point to notes of the source that are not given here.
Legend:
NHDF cells = assay: Collagen production by NHDF cells (Sircol collagen assay); type: cell-based, human; details: three days
Source text: For the anti-wrinkle action of glucosyladenosines, the effect of glucosyladenosines on the collagen production in the dermis was examined as follows using a normal human fetal fibroblast (NHDF) commonly used for evaluating agents for enhancing collagen production in the skin. […] Thereafter, the culture supernatant in each well was removed by aspiration, and the resulting cells were washed with phosphate buffered saline (PBS), and admixed with pepsin, commercialized by Sigma-Aldrich Co. LLC., Missouri, USA, which had been diluted with 1 M acetic acid to give a concentration of 1 mg/ml, in a volume of 250 μl/well. The resulting plates were shaken at ambient temperature for four hours, and the cells adhered to the wells were detached therefrom with a cell scraper and subjected to pipetting, followed by collecting the resulting cell suspension after the pepsin digestion into “EPPENDORF TUBE”, a product name of a 1.5 ml microtube, commercialized by Eppendorf AG, Hamburg, Germany. “Sicrol Collagen Assay Kit”, a product name of a developing color reagent for quantifying collagen, commercialized by Biocolor, CA, USA, was added to the tubes in a volume of 500 μl/tube, mixed with a vortex mixer, kneaded by allowing the tubes upside-down at an ambient temperature for exact 30 min using “RT-50”, a product name of a rotator commercialized by TAITEC Corporation, Saitama, Japan, and centrifuged (1,500 rpm) at 4° C. for 10 min to remove supernatants. The resulting sediments were admixed with 1 N NaOH in a volume of 100 μl/tube and dissolved by pipetting. The resulting solutions were all transferred to “FALCON MICROTEST™96”, a product name of a 96-well microplate commercialized by Becton, Dickinson and Company, NJ, USA, and measured for absorbance (A560-A650) on “Vmax Microplate Reader”, a product name of an absorption spectrometer commercialized by Molecular Devices Corporation, CA, USA. The collagen level in each well was determined based on a standard curve prepared by using type I collagen commercialized by KOKEN Co., Ltd., Tokyo, Japan, and the data are shown in Table 6 in parallel.

[1] = Solubility of glucosyladenosines in water (maximum dissolved concentration, HPLC); type: physicochemical
Protocol: As a basic property, the solubilities in water of the glucosyladenosines of the present invention were compared with that of adenosine. The 5′-glucosyladenosine prepared in Experiment 1-2 and the 3′-glucosyladenosine prepared in Experiment 2 were determined for solubility in water, and they were compared with that of adenosine. One hundred milligrams of 5′-glucosyladenosine or 3′-glucosyladenosine (these compounds may be collectively called glucosyladenosines, hereinafter) was dissolved in 500 μl of pure water at an ambient temperature (25° C.). While, five milligrams of adenosine was dissolved in 500 μl of pure water at an ambient temperature (25° C.). […] The filtrate was fed to HPLC under the following conditions, followed by determining the respective contents of glucosyladenosines and adenosine based on the peak areas appeared on a chromatogram by an ultraviolet detector, and calculating their concentrations as maximum dissolved concentrations at an ambient temperature (25° C.). The same samples were allowed to stand at a 4° C. cold room for one month and centrifuged, followed by quantifying the contents of glucosyladenosines and adenosine in the resulting supernatants similarly as above to determine their maximum dissolved concentrations at 4° C.
<Conditions for HPLC Analysis>
Apparatus: SHIMADZU UV-VIS DETECTOR SPD-10AV (a detector), LC-10AT (a pump), C-R8A (a recorder), and SIL-20AC (an autosampler);
Mobile phase: (0.1 v/v % aqueous acetic acid solution)/(methanol)=96/4 (v/v),
Detection wavelength: 260 nm,
Injection volume: 20 μl, and
Column temperature: 40° C.

[2] = test system: three-dimensional skin model (EPI-200 Kit); assay: Cytotoxicity: LDH release from three-dimensional skin model; type: cell-based; details: 18 hours, control = 1.0
Protocol: To examine whether glucosyladenosines are successively applied to the skin as ingredients for sustainable external dermal agents, they were examined for cytotoxicity. The strengths of cytotoxicity of glucosyladenosines were examined with an index of […] (LDH) that is released when cell are damaged, as an influence of glucosyladenosines and adenosine on three dimensional skin. […] A system, to which 30% ethanol with no glucosyladenosines and adenosine was added, was provided as a control. For the collected media, the activity of […] (LDH) released from each skin model was assayed on “CYTOTOXICITY DETECTION KIT (LDH)”, a product name of Hoffmann-La Roche Ltd., Basel, Switzerland, and calibrated for obtaining a relative LDH activity by regarding the LDH activity of the control as 1.0 in order to evaluate the cytotoxicity for each sample.

Compound	Collagen production level (NHDF cells; 5 μM in medium)	Collagen production level (NHDF cells; 10 μM in medium)	Maximum dissolved concentration ([1]; 4° C., one month) [w/v %]	Maximum dissolved concentration ([1]; 25° C., one day) [w/v %]	Relative LDH activity ([2]; concentration 5%)	Relative LDH activity ([2]; concentration 0.1%)	Relative LDH activity ([2]; concentration 1%)
Nc1ncnc2c1ncn2[C@@H]1O[C@H](CO[C@H]2O[C@H](CO)[C@@H](O)[C@H](O)[C@H]2O)[C@@H](O)[C@H]1O [5′-Glucosyladenosine, α-D-glucopyranosyl-(1→5′)-adenosine]	3.53* μg/well	4.54** μg/well	> 15.7	> 16.1	0.79	–	–
Nc1ncnc2c1ncn2[C@@H]1O[C@H](CO)[C@@H](O)[C@H]1O [Adenosine, reference compound]	2.61 μg/well	3.02* μg/well	0.4	0.8	–	1.38	3.68
Nc1ncnc2c1ncn2[C@@H]1O[C@H](CO)[C@@H](O[C@H]2O[C@H](CO)[C@@H](O)[C@H](O)[C@H]2O)[C@H]1O [3′-Glucosyladenosine, α-D-glucopyranosyl-(1→3′)-adenosine]	3.39* μg/well	4.37** μg/well	2	2	0.99	–	–
